Laboratory results published in US10793563B2, “GCN2 inhibitors and uses thereof” (Merck Patent GmbH, priority 2018, dated 2020).

Tests used:
GCN2 kinase = GCN2 kinase (Homo sapiens (Human), UniProt Q9P2K8); experiment: GCN2 Enzyme Inhibition Assay (Transcreener ADP2 fluorescence polarization); assay type: biochemical; conditions: 280 μM ATP, 200 μM (RS)7 peptide, 4 nM GCN2, 25° C.; for Ki: Ki(app)
Outline: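 Transcreener ADP2 fluorescence polarization detection of ADP from 4 nM GCN2 with (RS)7 substrate in 25 mM Tris-HCl pH 7.5, 50 mM NaCl, 10 mM MgCl2, 1 mM DTT. Compound pre-incubated with enzyme 10 min at 25 °C; reaction started by ATP, run 1 h at 25 °C. IC50 and Ki(app) by tight-binding fit.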

[1] = test system: primary human pan T-cells; experiment: Human IL-2 Assay for GCN2 Inhibition (IL-2 secretion from T cells in low amino acid condition); assay type: cell-based; conditions: IL-2 secretion from human T cells stimulated with anti-CD3/CD28 in low amino acid condition, ELISA; for EC50: Homo sapiens, T-cell, 96 h, read-out: IL2/T-cell EC50; for IL2/T-cell EC50: 96 hours
Text: Tumor microenvironment is profoundly immuno-suppressive. This may be attributed to the depletion of amino acids (like arginine and tryptophan) which triggers the activation of GCN2 in immune cells, including T cell and myeloid cells. In T cells, activation of GCN2 leads to reduce effector functions of CD8 T cells and induction and/or maintenance of immuno-suppressive T-regs. Inhibition of that immuno-suppressive response by GCN2 inhibitors enables an anti-cancer immune response by activating effector T-cells. Herein we describe an in-vitro system we established using human T-cells stimulated in low amino acid condition in order to engage the GCN2 biology. The method described involves the modulation of IL-2 levels secreted by human T cells in responses to the GCN2 inhibitors disclosed herein.
Amino acid-free RPMI was reconstituted with all but one of the amino acids found in standard RMPI (e.g. Arginine, Tryptophan), 10% charcoal-stripped fetal bovine serum, 100 Units/mL penicillin and 0.1 mg/mL streptomycin. Primary human pan T-cells were isolated using Pan T Cell Isolation Kit, human (MACS Miltenyi biotech Cat # Order no. 130-096-535) from apheresis cones and 5×104 pan T-cells per well. The purified T cells are seeded in Nunc™ 96-Well Polystyrene Round Bottom Microwell Plates (the cells are rested in No TRP media in a 15 ml falcon tube in the incubator for 30-45 minutes while titrations for tryptophan and the GCN2 inhibitor compound are made) A plate matrix was developed to titrate both a GCN2 inhibitor and the amino acid of interest ranging from “No Amino Acid” condition, up to the concentration found in the regular RPMI media (20 μM for TRP and 950 μM for Arginine). The cells were incubated for 30 min at 37° C. with the GCN2 inhibitor and then stimulated with 5×104 anti-CD3/CD28 Dynabeads® per well. After 96 hours of incubation the IL-2 level in the supernatant were measured using ELISA (R&D systems Cat # DY202 (Human IL-2 DuoSet ELISA). Data were plotted in GraphPad Prism software and EC50 is calculated.

[2] = molecular target: intracellular GCN2 (phosphorylation of the GCN2 substrate eIF2α) (Homo sapiens (Human), UniProt Q9P2K8); experiment: GCN2 Cellular Inhibition Assay (AlphaScreen SureFire P-eIF2α Ser51, borrelidin-treated U2OS cells); assay type: cell-based; conditions: 10 μM borrelidin, 1 h, phosphorylated eIF2α Ser51, read-out: GCN2 Biomarker (IC50)
intracellular GCN2 (phosphorylation of the GCN2 substrate eIF2α), sequence (Q9P2K8 whole entry): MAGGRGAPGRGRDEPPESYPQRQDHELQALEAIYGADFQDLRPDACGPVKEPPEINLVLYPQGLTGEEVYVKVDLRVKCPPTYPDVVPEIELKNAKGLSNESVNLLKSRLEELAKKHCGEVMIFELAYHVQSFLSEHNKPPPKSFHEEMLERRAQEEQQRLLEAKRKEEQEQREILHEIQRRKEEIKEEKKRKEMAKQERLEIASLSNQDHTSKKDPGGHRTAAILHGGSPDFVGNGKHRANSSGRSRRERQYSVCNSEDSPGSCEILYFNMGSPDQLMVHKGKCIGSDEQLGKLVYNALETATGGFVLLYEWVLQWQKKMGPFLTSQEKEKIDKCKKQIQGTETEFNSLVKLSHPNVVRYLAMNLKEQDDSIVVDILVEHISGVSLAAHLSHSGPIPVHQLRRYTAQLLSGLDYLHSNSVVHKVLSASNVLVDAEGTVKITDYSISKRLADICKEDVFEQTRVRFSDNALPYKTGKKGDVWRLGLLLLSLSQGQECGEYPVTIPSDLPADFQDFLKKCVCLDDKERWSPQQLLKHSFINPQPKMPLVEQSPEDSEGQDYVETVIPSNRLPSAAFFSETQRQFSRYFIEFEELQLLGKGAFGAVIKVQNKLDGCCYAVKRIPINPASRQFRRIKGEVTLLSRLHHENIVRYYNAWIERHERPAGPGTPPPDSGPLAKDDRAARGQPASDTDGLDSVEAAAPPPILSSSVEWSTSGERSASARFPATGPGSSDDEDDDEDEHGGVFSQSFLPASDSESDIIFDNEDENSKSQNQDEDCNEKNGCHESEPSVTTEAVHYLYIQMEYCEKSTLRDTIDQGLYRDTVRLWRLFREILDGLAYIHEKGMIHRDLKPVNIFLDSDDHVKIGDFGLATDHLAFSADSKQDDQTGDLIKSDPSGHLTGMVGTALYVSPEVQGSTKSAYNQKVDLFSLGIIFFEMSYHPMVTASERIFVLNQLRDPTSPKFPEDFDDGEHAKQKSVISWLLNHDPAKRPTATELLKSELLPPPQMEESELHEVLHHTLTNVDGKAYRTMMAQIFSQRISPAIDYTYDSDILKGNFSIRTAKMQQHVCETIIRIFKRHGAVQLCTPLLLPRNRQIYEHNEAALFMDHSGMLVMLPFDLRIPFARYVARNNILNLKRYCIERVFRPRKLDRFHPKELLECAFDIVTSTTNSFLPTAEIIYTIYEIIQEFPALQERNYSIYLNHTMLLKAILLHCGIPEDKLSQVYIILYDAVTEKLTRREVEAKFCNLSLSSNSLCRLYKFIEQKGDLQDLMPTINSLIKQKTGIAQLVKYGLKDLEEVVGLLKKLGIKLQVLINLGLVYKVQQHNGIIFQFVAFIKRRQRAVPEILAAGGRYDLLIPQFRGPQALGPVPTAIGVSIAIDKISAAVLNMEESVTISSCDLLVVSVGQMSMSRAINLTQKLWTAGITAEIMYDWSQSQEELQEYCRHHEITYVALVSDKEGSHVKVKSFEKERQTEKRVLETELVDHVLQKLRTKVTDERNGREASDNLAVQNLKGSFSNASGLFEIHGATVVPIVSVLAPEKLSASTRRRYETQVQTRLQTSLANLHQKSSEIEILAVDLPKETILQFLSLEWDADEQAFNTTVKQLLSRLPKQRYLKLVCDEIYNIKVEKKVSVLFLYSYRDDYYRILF
Outline: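 U2OS cells adhered overnight, then given compound (top 40 μM, 4-fold serial dilutions) plus 10 μM borrelidin for 1 h at 37 °C. Lysates assayed for eIF2α phospho-Ser51 by AlphaScreen SureFire; % inhibition versus borrelidin-only wells.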

GCN2 kinase, sequence (Q9P2K8 whole entry): as above

Compound: C[C@@H]1CN(c2nccc(-c3cnc4ccc(C(F)(F)F)cn34)n2)C[C@@H](c2cn[nH]c2)O1 [I-135, (2R,6R)-2-methyl-6-(1H-pyrazol-4-yl)-4-(4-(6-(trifluoromethyl)imidazo[1,2-a]pyridin-3-yl)pyrimidin-2-yl)morpholine]
- IC50 (GCN2 kinase): < 0.01 µM
- EC50 [1]: 0.1 to 0.5 µM
- IC50 [2]: < 0.5 µM

Compound: NC(=O)[C@H]1CCCN(c2ccnc(-c3cnc4ccc(Cl)cn34)n2)C1 [I-102, (S)-1-(2-(6-chloroimidazo[1,2-a]pyridin-3-yl)pyrimidin-4-yl)piperidine-3-carboxamide]
- Ki (GCN2 kinase): < 0.01 µM
- EC50 [1]: 0.1 to 0.5 µM
- IC50 [2]: < 0.5 µM

Compound: CS(=O)(=O)C1CC(N2CCN(c3ccnc(-c4cnc5ccc(C(F)(F)F)cn45)n3)C[C@@H]2c2cn[nH]c2)C1 (stereo partly drawn) [I-495, 3-{4-[(S)-4-(3-Methanesulfonyl-cyclobutyl)-3-(1H-pyrazol-4-yl)-piperazin-1-yl]-pyrimidin-2-yl}-6-trifluoromethyl-imidazo[1,2-a]pyridine]
- IC50 (GCN2 kinase): < 0.01 µM
- EC50 [1]: > 0.5 µM
- IC50 [2]: < 0.5 µM

Compound: C[C@H]1CN(c2ccnc(-c3cnc4ccc(Cl)cn34)n2)C[C@@H](c2cn[nH]c2F)O1 [I-176, (2R,6S)-4-(2-(6-chloroimidazo[1,2-a]pyridin-3-yl)pyrimidin-4-yl)-2-(5-fluoro-1H-pyrazol-4-yl)-6-methylmorpholine]
- IC50 (GCN2 kinase): < 0.01 µM
- EC50 [1]: < 0.1 µM
- IC50 [2]: < 0.5 µM

Compound: FC(F)(F)c1ccc2ncc(-c3nccc(N4CCN(C5CC6(COC6)C5)[C@H](c5cn[nH]c5)C4)n3)n2c1 [I-504, (R)-3-(4-(3-(1H-pyrazol-4-yl)-4-(2-oxaspiro[3.3]heptan-6-yl)piperazin-1-yl)pyrimidin-2-yl)-6-(trifluoromethyl)imidazo[1,2-a]pyridine]
- IC50 (GCN2 kinase): < 0.01 µM
- EC50 [1]: 0.1 to 0.5 µM
- IC50 [2]: < 0.5 µM

Compound: C[C@H]1CN(c2nccc(-c3cnc4ccc(Cl)cn34)n2)C[C@@H](c2cn[nH]c2)O1 [I-247, 6-Chloro-3-{2-[(2S,6R)-2-methyl-6-(1H-pyrazol-4-yl)-morpholin-4-yl]-pyrimidin-4-yl}-imidazo[1,2-a]pyridine]
- IC50 (GCN2 kinase): < 0.01 µM
- EC50 [1]: < 0.1 µM
- IC50 [2]: < 0.5 µM

Compound: Cc1[nH]ncc1[C@H]1[C@@H](C)N(c2ccnc(-c3cnc4ccc(C(F)(F)F)cn34)n2)CCN1C1COC1 [I-366]
- IC50 (GCN2 kinase): < 0.01 µM
- EC50 [1]: < 0.1 µM
- IC50 [2]: < 0.5 µM

Compound: C[C@H]1C[C@@H](N=S(C)(C)=O)CN(c2ccnc(-c3cnc4ccc(C(F)(F)F)cn34)n2)C1 (stereo in doubt) [I-123, Dimethyl(((3R,5S)-5-methyl-1-(2-(6-(trifluoromethyl)imidazo[1,2-a]pyridin-3-yl)pyrimidin-4-yl)piperidin-3-yl)imino)-λ6-sulfanone]
- IC50 (GCN2 kinase): 0.01 to 0.1 µM
- EC50 [1]: > 0.5 µM
- IL2/T-cell EC50 [1]: − (“−” for not active)
- IC50 [2]: < 0.5 µM

Compound: C[C@@H]1C[C@H](c2cn[nH]c2)CN(c2nccc(-c3cnc4ccc(C5CC5)cn34)n2)C1 [I-249, 6-Cyclopropyl-3-{2-[(3R,5R)-3-methyl-5-(1H-pyrazol-4-yl)-piperidin-1-yl]-pyrimidin-4-yl}-imidazo[1,2-a]pyridine]
- IC50 (GCN2 kinase): < 0.01 µM
- EC50 [1]: 0.1 to 0.5 µM
- IC50 [2]: < 0.5 µM

Compound: Cc1n[nH]nc1[C@@H]1C[C@H](C)CN(c2ccnc(-c3cnc4ccc(C(F)(F)F)cn34)n2)C1 [I-409, 3-(4-((3S,5R)-3-methyl-5-(5-methyl-2H-1,2,3-triazol-4-yl)piperidin-1-yl)pyrimidin-2-yl)-6-(trifluoromethyl)imidazo[1,2-a]pyridine]
- IC50 (GCN2 kinase): 0.01 to 0.1 µM
- EC50 [1]: > 0.5 µM
- IC50 [2]: < 0.5 µM

Compound: Cc1cc(-c2cnc3ccc(Cl)cn23)nc(N2C[C@H](C)C[C@H](c3cn[nH]c3)C2)n1 [I-209, 6-chloro-3-(6-methyl-2-((3R,5R)-3-methyl-5-(1H-pyrazol-4-yl)piperidin-1-yl)pyrimidin-4-yl)imidazo[1,2-a]pyridine]
- IC50 (GCN2 kinase): 0.01 to 0.1 µM
- EC50 [1]: 0.1 to 0.5 µM
- IC50 [2]: < 0.5 µM

Compound: C[C@@H]1C[C@H](N=S(C)(C)=O)CN(c2ccnc(-c3cnc4cc(F)c(Cl)cn34)n2)C1 [I-191, (((3 S, 5R)-1-(2-(6-chloro-7-fluoroimidazo[1,2-a]pyridin-3-yl)pyrimidin-4-yl)-5-methylpiperidin-3-yl)imino)dimethyl-λ6-sulfanone]
- IC50 (GCN2 kinase): 0.01 to 0.1 µM
- IL2/T-cell EC50 [1]: − (“−” for not active)
- IC50 [2]: < 0.5 µM

Compound: C[C@H]1C[C@@H](N=S(C)(C)=O)CN(c2ccnc(-c3cnc4ccc(Cl)cn34)n2)C1 (stereo in doubt) [I-128, (((3R,5S)-1-(2-(6-chloroimidazo[1,2-a]pyridin-3-yl)pyrimidin-4-yl)-5-methylpiperidin-3-yl)imino)dimethyl-λ6-sulfanone]
- IC50 (GCN2 kinase): 0.01 to 0.1 µM
- EC50 [1]: > 0.5 µM
- IC50 [2]: < 0.5 µM

Compound: NC(=O)[C@@H]1CCCN(c2ncc(F)c(-c3cnc4ccc(C(F)(F)F)cn34)n2)C1 [I-223, (R)-1-(5-fluoro-4-(6-(trifluoromethyl)imidazo[1,2-a]pyridin-3-yl)pyrimidin-2-yl)piperidine-3-carboxamide]
- IC50 (GCN2 kinase): < 0.01 µM
- EC50 [1]: 0.1 to 0.5 µM
- IC50 [2]: < 0.5 µM

Compound: Cc1cnc(N2C[C@H](C)C[C@H](c3cn[nH]c3)C2)nc1-c1cnc2ccc(Cl)cn12 [I-185, 6-chloro-3-(5-methyl-2-((3R,5R)-3-methyl-5-(1H-pyrazol-4-yl)piperidin-1-yl)pyrimidin-4-yl)imidazo[1,2-a]pyridine]
- IC50 (GCN2 kinase): 0.01 to 0.1 µM
- IL2/T-cell EC50 [1]: − (“−” for not active)
- IC50 [2]: < 0.5 µM

Compound: CC1CCC(C(N)=O)CN1c1ccnc(-c2cnc3ccc(C(F)(F)F)cn23)n1 (centres unmarked) [I-200, 6-methyl-1-(2-(6-(trifluoromethyl)imidazo[1,2-a]pyridin-3-yl)pyrimidin-4-yl)piperidine-3-carboxamide]
- IC50 (GCN2 kinase): < 0.01 µM
- EC50 [1]: 0.1 to 0.5 µM
- IC50 [2]: < 0.5 µM

Compound: C[C@H]1[C@@H](c2cn[nH]c2)N(CC2(C)COC2)CCN1c1ccnc(-c2cnc3ccc(C(F)(F)F)cn23)n1 [I-481, 3-(4-((2 S,3R)-2-methyl-4-((3-methyloxetan-3-yl)methyl)-3-(1H-pyrazol-4-yl)piperazin-1-yl)pyrimidin-2-yl)-6-(trifluoromethyl)imidazo[1,2-a]pyridine]
- IC50 (GCN2 kinase): < 0.01 µM
- EC50 [1]: < 0.1 µM
- IC50 [2]: < 0.5 µM

Compound: CC1CC1CN1CCN(c2ccnc(-c3cnc4ccc(C(F)(F)F)cn34)n2)CC1c1cn[nH]c1 (centres unmarked) [I-473, 3-(4-(4-((2-methylcyclopropyl)methyl)-3-(1H-pyrazol-4-yl)piperazin-1-yl)pyrimidin-2-yl)-6-(trifluoromethyl)imidazo[1,2-a]pyridine]
- IC50 (GCN2 kinase): < 0.01 µM
- EC50 [1]: 0.1 to 0.5 µM
- IC50 [2]: < 0.5 µM

Compound: C[C@H]1C[C@@H](c2cn[nH]c2)CN(c2nccc(-c3cnc4ccc(C5CC5)cn34)n2)C1 [I-250, 6-Cyclopropyl-3-{2-[(3 S,5S)-3-methyl-5-(1H-pyrazol-4-yl)-piperidin-1-yl]-pyrimidin-4-yl}-imidazo[1,2-a]pyridine]
- IC50 (GCN2 kinase): 0.01 to 0.1 µM
- IL2/T-cell EC50 [1]: − (“−” for not active)
- IC50 [2]: < 0.5 µM

Compound: NC(=O)[C@H]1CCCN(c2ccnc(-c3cnc4ccc(C(F)(F)F)cn34)n2)C1 [I-154, (S)-1-[2-(6-Trifluoromethyl-imidazo[1,2-a]pyridin-3-yl)-pyrimidin-4-yl]-piperidine-3-carboxylic acid amide]
- IC50 (GCN2 kinase): < 0.01 µM
- Ki (GCN2 kinase): < 0.01 µM
- EC50 [1]: < 0.1 µM
- IC50 [2]: < 0.5 µM

Compound: C[C@@H]1C[C@H](N=S(C)(C)=O)CN(c2nccc(-c3cnc4ccc(C(F)F)cn34)n2)C1 [I-499, (((3 S,5R)-1-(4-(6-(difluoromethyl)imidazo[1,2-a]pyridin-3-yl)pyrimidin-2-yl)-5-methylpiperidin-3-yl)imino)dimethyl-λ6-sulfanone]
- IC50 (GCN2 kinase): < 0.01 µM
- EC50 [1]: > 0.5 µM
- IC50 [2]: < 0.5 µM

Compound: C[C@@H]1CN(c2ccnc(-c3cnc4ccc(OC(F)(F)F)cn34)n2)C[C@H](c2cn[nH]c2)O1 [I-293, (2R,6 S)-2-methyl-6-(1H-pyrazol-4-yl)-4-(2-(6-(trifluoromethoxy)imidazo[1,2-a]pyridin-3-yl)pyrimidin-4-yl)morpholine]
- IC50 (GCN2 kinase): < 0.01 µM
- EC50 [1]: < 0.1 µM
- IC50 [2]: < 0.5 µM
